Measured values as given in publication PMC12616682, “Identification of a Highly Cooperative PROTAC Degrader Targeting GTP-Loaded KRAS(On) Alleles” (Journal of the American Chemical Society, 2025).
Entries after “also recorded” stand apart in the source; their conditions may differ. Where two headings read alike, the source gives them in different places.

Assays:
[1] = target: T1, HiBiT-KRAS^G12D in GP5d cells (Homo sapiens, UniProt P01116, G12D); assay: HiBiT degradation assay, HiBiT-KRAS^G12D GP5d cells; format: cell-based; conditions: Gp5D (HiBit-G12D)
T1 construct: host or cells: GP5d HiBiT KRAS G12D

KRAS^Q61L in SW948 cells = target: T2, KRAS^Q61L in SW948 cells (Homo sapiens, UniProt P01116, Q61L); assay: Endogenous KRAS degradation by Western blot in SW948 cells; format: cell-based
T2 construct: host or cells: SW948

[2] = target: T3, KRAS^G12R in Cal-62 cells (Homo sapiens, UniProt P01116, G12R); assay: Endogenous KRAS degradation by Western blot in Cal-62 cells; format: cell-based; conditions: Cal-62 (G12R)
T3 construct: Potent degradation of endogenous KRAS^G12R was achieved by ACBI4 in the Cal-62 cell line; host or cells: Cal-62

KRAS^WT-GDP = KRAS^WT-GDP (Homo sapiens, UniProt P01116); assay: Binary SPR KRAS^WT-GDP (protocol from Lito et al.); conditions: read-out: KRAS^WT-GDP KD
[3] = target: T4, KRAS^Q61K in Calu-6 cells (Homo sapiens, UniProt P01116, Q61K); assay: Endogenous KRAS degradation by Western blot in Calu-6 cells; format: cell-based; conditions: Calu-6 (Q61K)
T4 construct: host or cells: Calu-6

[4] = target: T5, HiBiT-KRAS^G12R in Cal-62 cells (Homo sapiens, UniProt P01116, G12R); assay: Kinetic degradation (live mode), Cal-62 HiBiT KRAS^G12R cells; format: cell-based; conditions: Cal62-HiBit (G12R)
T5 construct: generated a HiBiT-KRAS^G12R Cal-62 knock-in cell line using the CRISPR Cas9 technology; endogenous in cells; host or cells: Cal-62 HiBiT KRAS G12R (in-house CRISPR knock-in)

Cal-62 cells [5] = assay: CellTiter-Glo anti-proliferation, Cal-62; format: cell-based, human; conditions: Cal-62 (G12R)
KRAS^G12D in GP5d cells = target: T6, KRAS^G12D in GP5d cells (Homo sapiens, UniProt P01116, G12D); assay: Endogenous KRAS degradation by Western blot in GP5d cells; format: cell-based
T6 construct: comparison of the degradative effect on endogenous KRAS; host or cells: GP5d

Calu-6 cells = assay: CellTiter-Glo anti-proliferation, Calu-6; format: cell-based, human; conditions: Calu-6 (Q61K)
[6] = target: T5, HiBiT-KRAS^G12R in Cal-62 cells; assay: HiBiT degradation assay, HiBiT-KRAS^G12R Cal-62 cells; format: cell-based; conditions: Cal-62 (HiBitG12R)
Experimental: (Gibco) with 10% FBS in a humidiﬁed cell incubator at 37 °C and 5% CO2.
Plasmids pSpCas9 BB-2A-GFP (PX458) containing gRNA, Cas9 and GFP sequences and […] plasmid containing ssDNA donor template were purchased from Genscript. Cal-62 cells were plated at 5x10^5 cells in a 6-well plate and left to adhere overnight. The next day, the transfection plasmids (0.5 µg of each gRNA plasmid and 0.5 µg of donor template) were diluted in Opti-MEM, combined with Lipofectamine solution in Opti-mem according to the manufacturer’s protocol and incubated for 20 min at RT. The mixture was added to the cells and incubated for 24 h. The next day the media was exchanged, and the cells were left to incubate for another 24 h. GFP positive cells were single-cell sorted into 96-well plates using ﬂuorescence-activated cell sorting (FACS) at the Flow Cytometry and Cell Sorting Facility (University of Dundee). Sorted cells were left to grow in conditioned media supplemented with 20% FBS for 3 weeks. Formed colonies were tested for the expression of HiBiT KRAS using the Nano-Glo® HiBiT Lytic system (Promega). The positive clones were additionally tested for insertion of the HiBiT tag by western blotting for KRAS (mouse anti-KRAS, LsBio) and HiBiT (mouse anti-HiBiT, Promega) and the insert was further conﬁrmed by Sanger sequencing. […]
gRNA1: 5’ […] 3’, gRNA2: 5’ […] 3’, gRNA 3: 5’ […]
template DNA: 5’ caatccagctt tatttgacac tcattctctc aactctcatc tgattcttac tgttaatatt tatccaagag aactactgcc atgatgcttt aaaagttttt ctgtagctgt tgcatattga cttctaacac ttagaggtgg gggtccacta ggaaaactgt aacaataaga gtggagatag ctgtcagcaa cttttgtgag ggtgtgctac agggtgtaga gcactgtgaa gtctctacat gagtgaagtc atgatatgat cctttgagag cctttagccg ccgcagaaca gcagtctggc tatttagata gaacaacttg attttaagat aaaagaactg tctatgtagc atttatgcat ttttcttaag cgtcgatgga ggagtttgta aatgaagtac agttcattac gatacacgtc tgcagtcaac tggaattttc atgattgaat tttgtaaggt attttgaaat aatttttcat ataaaggtga gtttgtatta aaaggtactg gtggagtatt tgatagtgta ttaaccttat gtgtgacatg ttctaatata gtcacatttt cattattttt attataaggc ctgctgaaa […]
atg[…]act gaGtaCaaGctCgtAgtagttggag ctCgtggc gta ggc aag agt gcc ttA acAatCcaActaattcagaatcat tttgtggacg aatatgatcc aacaatagag gtaaatcttg ttttaatatg catattactg gtgcaggacc attctttgat acagataaag gtttctctga ccattttcat gagtacttat tacaagataa ttatgctgaa agttaagtta tctgaaatgt accttgggtt tcaagttata tgtaaccatt aatatgggaa ctttactttc cttgggagta tgtcagggtc catgatgttc actctctgtg cattttgatt ggaagtgtat ttcagagttt cgtgagaggg tagaaatttg tatcctatct ggacctaaaa gacaatcttt ttattgtaac ttttattttt atgggtttct tggtattgtg acatcatatg taaaggttag atttaattgt actagtgaaa tataattgtt tgatggttga tttttttaaa cttcatcagc agtattttcc tatcttcttc tcaacattag agaacctaca actaccggat aaattttaca aaatgaatta tttgcctaag gtgtggttta tataaaggta ctattaccaa ctttaccttt gctttgttgt catttttaaa tttactcaag gaaatactag gatttaaaaa aaaattcctt 3’
Degradation via Detection of Split Nanoluciferase (HiBiT)
To assess PROTAC-mediated degradation of HiBiT-tagged KRAS constructs, cells were seeded at […]
further incubated at 37 °C for 4 and 24 h. Following incubation, 20 µL per well of Promega Nano-Glo® HiBiT lytic detection reagent mix (Promega Nano-Glo® HiBiT Lytic Detection System […]
plotted as percent of DMSO control.

KRAS^G12R in KP-2 cells = target: T7, KRAS^G12R in KP-2 cells (Homo sapiens, UniProt P01116, G12R); assay: Endogenous KRAS degradation by Western blot in KP-2 cells; format: cell-based; conditions: KP-2 (G12R)
T7 construct: host or cells: KP-2

Cal-62 cells [7] = assay: Whole cell proteomics MS analysis of Cal-62 cells; format: cell-based, human; conditions: 1 µM, 6 h, FDR<0.05
[8] = test system: HiBiT-tagged KRAS mutants in GP5d cells; assay: Degradation of retrovirally transduced HiBiT-tagged KRAS mutants in GP5d cells; format: cell-based, human; conditions: 18 h
HRAS in Cal-62 cells = HRAS in Cal-62 cells (Homo sapiens, UniProt P01112); assay: Western blot of HRAS levels in Cal-62 cells
NRAS in Cal-62 cells = NRAS in Cal-62 cells (Homo sapiens, UniProt P01111); assay: Western blot of NRAS levels in Cal-62 cells
A375 cells = assay: CellTiter-Glo anti-proliferation, A375 (KRAS independent); format: cell-based, human
[9] = Homo sapiens, 72 h, read-out: CTG 72h Ic50

Sequence of HRAS in Cal-62 cells (P01112 whole entry): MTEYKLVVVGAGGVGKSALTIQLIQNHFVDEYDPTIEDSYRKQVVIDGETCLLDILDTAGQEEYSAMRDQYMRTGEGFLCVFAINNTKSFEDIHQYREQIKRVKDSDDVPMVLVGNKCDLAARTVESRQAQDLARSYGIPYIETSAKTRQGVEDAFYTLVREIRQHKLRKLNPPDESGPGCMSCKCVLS
Sequence of NRAS in Cal-62 cells (P01111 whole entry): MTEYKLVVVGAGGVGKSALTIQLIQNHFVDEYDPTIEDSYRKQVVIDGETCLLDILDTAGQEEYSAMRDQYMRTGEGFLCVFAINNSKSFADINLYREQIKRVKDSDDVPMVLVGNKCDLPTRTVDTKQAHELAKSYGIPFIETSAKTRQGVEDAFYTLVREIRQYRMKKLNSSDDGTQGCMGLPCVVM

Cc1ncsc1-c1ccc([C@H](CO)NC(=O)[C@@H]2C[C@@H](O)CN2C(=O)[C@H](C(C)C)n2cc(OCCCCN3CCCN(c4nccc(-c5noc([C@@]6(C)CCCc7sc(N)c(C#N)c76)n5)n4)[C@@H](C)C3)nn2)cc1 [ACBI3, reference compound]
Dmax ([1]; 4 h, read-out: DMax 4h): 79%
DC50 ([1]; 4 h, read-out: Dc50 4h): 9.9 nM
Dmax ([1]; 24 h, read-out: DMax 24h): 94%
DC50 ([1]; 24 h, read-out: Dc50 24h): 2.5 nM
DMax 4h (KRAS^Q61L in SW948 cells; 4 h): unstable
Dc50 4h (KRAS^Q61L in SW948 cells; 4 h): unstable
Dmax (KRAS^Q61L in SW948 cells; 18 h, read-out: DMax 18h): 45%
DC50 (KRAS^Q61L in SW948 cells; 18 h, read-out: Dc50 18h): 10000 nM
DMax 4h ([2]; 4 h): unstable
Dc50 4h ([2]; 4 h): unstable
Dmax ([2]; 18 h, read-out: DMax 18h): 9%
DC50 ([2]; 18 h, read-out: Dc50 18h): 282 nM
Kd (KRAS^WT-GDP): 4.9 ± 2.6 nM
Dc50 4h ([3]; 4 h): unstable
Dmax ([3]; 4 h, read-out: DMax 4h): 11%
DMax 18h ([3]; 18 h): unstable
Dc50 18h ([3]; 18 h): unstable
1/K (Tau) [4]: unstable
Plateau (degradation rate) [4]: unstable
Plateu/ Tau [4]: unstable
CTG 72h Ic50 (Cal-62 cells [5]): unstable
Dmax (KRAS^G12D in GP5d cells; 4 h, read-out: DMax 4h): 98.3%
DC50 (KRAS^G12D in GP5d cells; 4 h, read-out: Dc50 4h): 7.3 nM
Dmax (KRAS^G12D in GP5d cells; 18 h, read-out: DMax 18h): 100%
IC50 (Calu-6 cells; [9]): 338 nM
DMax 4h ([6]; 4 h): unstable
Dc50 4h ([6]; 4 h): unstable
Dmax ([6]; 24 h, read-out: DMax 24h): 31%
DC50 ([6]; 24 h, read-out: Dc50 24h): 114 nM
DMax 4h (KRAS^G12R in KP-2 cells; 4 h): unstable
Dc50 4h (KRAS^G12R in KP-2 cells; 4 h): unstable
Dmax (KRAS^G12R in KP-2 cells; 18 h, read-out: DMax 18h): 50%
DC50 (KRAS^G12R in KP-2 cells; 18 h, read-out: Dc50 18h): 961 nM

CC(C)C(C(=O)N1CC(O)CC1C(=O)NCc1ccc2cnn(C)c2c1)n1nnc2c1CCC(CCCN1CCCN(c3nccc(-c4noc(C5(C)CCCc6sc(N)c(C#N)c65)n4)n3)C(C)C1)C2 (stereo not drawn) [ACBI4]
Log2 Difference CDKN1C (Cal-62 cells [7]; ACBI4/DMSO): 1.09
Log2 Difference FOSL1 (Cal-62 cells [7]; ACBI4/DMSO): -0.93
Log2 Difference G0S2 (Cal-62 cells [7]; ACBI4/DMSO): -1.35
Log2 Difference KRAS (Cal-62 cells [7]; ACBI4/DMSO): -0.94
Log2 Difference NRAS (Cal-62 cells [7]; ACBI4/DMSO): -1.86
Log2 Difference RHOB (Cal-62 cells [7]; ACBI4/DMSO): 2.12
Log2 Difference CDKN1C (Cal-62 cells [7]; ACBI4/Neg Ctr): 1.24
Log2 Difference FOSL1 (Cal-62 cells [7]; ACBI4/Neg Ctr): -0.7
Log2 Difference G0S2 (Cal-62 cells [7]; ACBI4/Neg Ctr): -1.11
Log2 Difference KRAS (Cal-62 cells [7]; ACBI4/Neg Ctr): -0.79
Log2 Difference NRAS (Cal-62 cells [7]; ACBI4/Neg Ctr): -1.48
Log2 Difference PLAU (Cal-62 cells [7]; ACBI4/Neg Ctr): -0.73
Log2 Difference RHOB (Cal-62 cells [7]; ACBI4/Neg Ctr): 2.07
Log2 Difference TSPYL4 (Cal-62 cells [7]; ACBI4/Neg Ctr): 0.96
degradation of HiBiT-tagged KRAS mutant panel (in words) [8]: induce the degradation of all KRAS alleles
Dmax ([1]; 4 h, read-out: DMax 4h): 84%
DC50 ([1]; 4 h, read-out: Dc50 4h): 9 nM
Dmax ([1]; 24 h, read-out: DMax 24h): 93%
DC50 ([1]; 24 h, read-out: Dc50 24h): 2 nM
Dmax (KRAS^Q61L in SW948 cells; 4 h, read-out: DMax 4h): 58%
DC50 (KRAS^Q61L in SW948 cells; 4 h, read-out: Dc50 4h): 300 nM
Dmax (KRAS^Q61L in SW948 cells; 18 h, read-out: DMax 18h): 65%
DC50 (KRAS^Q61L in SW948 cells; 18 h, read-out: Dc50 18h): 1000 nM
Dmax ([2]; 4 h, read-out: DMax 4h): 88%
DC50 ([2]; 4 h, read-out: Dc50 4h): 382 nM
Dmax ([2]; 18 h, read-out: DMax 18h): 93%
DC50 ([2]; 18 h, read-out: Dc50 18h): 162 nM
Dmax ([3]; 4 h, read-out: DMax 4h): 34%
DC50 ([3]; 4 h, read-out: Dc50 4h): 274 nM
Dmax ([3]; 18 h, read-out: DMax 18h): 68%
DC50 ([3]; 18 h, read-out: Dc50 18h): 157 nM
Dmax (HRAS in Cal-62 cells; CAL-62, read-out: HRAS Dmax): 72%
window of HRAS degradation over KRAS degradation (HRAS in Cal-62 cells; Cal-62, DC50 637 nM vs 382 nM): ca. 2 fold
DC50 (HRAS in Cal-62 cells; read-out: HRAS DC50, Cal-62 cells, 4 h, Western blot): 637 nM
1/K (Tau) [4]: 0.689 µM
Plateau (degradation rate) [4]: 0.2774 min⁻¹
Plateu/ Tau [4]: 6708 M⁻¹ s⁻¹
IC50 (Cal-62 cells [5]; [9]): 174 nM
Dmax (KRAS^G12D in GP5d cells; 4 h, read-out: DMax 4h): 96.5%
DC50 (KRAS^G12D in GP5d cells; 4 h, read-out: Dc50 4h): 7 nM
Dmax (KRAS^G12D in GP5d cells; 18 h, read-out: DMax 18h): 99%
DC50 (KRAS^G12D in GP5d cells; 18 h, read-out: Dc50 18h): 7 nM
NRAS degradation (NRAS in Cal-62 cells): degradation of NRAS only at very high concentrations
CTG 72h Ic50 (Calu-6 cells): unstable
Dmax ([6]; 4 h, read-out: DMax 4h): 80%
DC50 ([6]; 4 h, read-out: Dc50 4h): 80 nM
Dmax ([6]; 24 h, read-out: DMax 24h): 87%
DC50 ([6]; 24 h, read-out: Dc50 24h): 205 nM
Dmax (KRAS^G12R in KP-2 cells; 4 h, read-out: DMax 4h): 91%
DC50 (KRAS^G12R in KP-2 cells; 4 h, read-out: Dc50 4h): 316 nM
Dmax (KRAS^G12R in KP-2 cells; 18 h, read-out: DMax 18h): 82%
DC50 (KRAS^G12R in KP-2 cells; 18 h, read-out: Dc50 18h): 151 nM
IC50 (A375 cells; Homo sapiens, A-375, 144 h, A375 (KRAS WT; KRAS independent), read-out: CTG 144h Ic50): > 3000 nM
antiproliferative effect (in words) (A375 cells; KRAS-independent A375 cell line): No antiproliferation; also recorded: No antiproliferative effect was observed
